Source: publication PMC6048268, “Resveratrol Inhibits Key Steps of Steroid Metabolism in a Human Estrogen-Receptor Positive Breast Cancer Model: Impact on Cellular Proliferation” (Frontiers in Pharmacology, 2018)

What was measured:
MDA-MB-231 cells [1] = assay: Metabolism of RES in MDA-MB-231 cells (HPLC)
Procedure: (§1) After 48 h, the cellular media (100 μl) were mixed with 200 μl ice-cold (-20°C) methanol and subsequently centrifuged (14000 rpm, 5 min). The clear supernatants were then diluted 1:1 with aqueous ammonium acetate buffer (5 mM, pH = 7.4), and 80 μl of the samples were injected onto the HPLC column. […] Calibration of the chromatogram was accomplished using the external standard method.
(§2) The modes of inhibition were subsequently determined from Lineweaver–Burk plots, and the corresponding Ki values were calculated from Dixon plots using GraphPad Prism 6.0.

MCF-7 cells [2] = assay: Metabolism of RES in MCF-7 cells (HPLC)
Procedure: as §1, §2

[3] = 0.5–5.0 g/day RES for up to 29 days, healthy subjects; ref Brown et al., 2010; cited from earlier work
MCF-7 cells [4] = assay: Cell proliferation, Casy cell counting, MCF-7; format: cell-based, human; details: 48 h; for cell number: 100 nM hormone precursor
Procedure: (§3) MDA-MB-231 and MCF-7 breast cancer cells were purchased from the American Type Culture Collection (ATCC; Manassas, VA, United States) and routinely cultivated at 37°C (95% humidity and 5% CO2) in phenolred-free Dulbecco’s modified Eagle medium F-12 (DMEM/F-12), fortified with 1% PenStrep®-solution and 10% fetal bovine serum (Invitrogen; Thermo Fisher Scientific, Inc., Waltham, MA, United States). All experiments were performed during the exponential growth phase of both cell lines. For the experiments, cells were seeded in 6-well-plates at a density of 1.0 × 10^6 cells per well and allowed to attach for 24 h.
(§4) Prior to cell counting with a Casy® TT Cell Counter (OLS OMNI Life Science, Bremen, Germany), the supernatant medium was removed and cells were detached using 400 μl TrypLe® solution (Invitrogen). All experiments were performed in triplicate, and the data were reported as the means ± standard deviation of all values.

MCF-7 cells [5] = details: for decrease of native hormone precursor: MCF-7, 100 nM, 48 h
Procedure: (§5) Briefly, cartridges were preconditioned with 2 × 1.0 ml acetonitrile and 3 × 1.0 ml ammonium acetate buffer (10 mM, pH = 5.0), and the samples were loaded onto the columns. After washing with 1 × 1.0 ml ammonium acetate buffer (10 mM, pH = 5.0) and 2 × 1.0 ml acetonitrile/ammonium acetate buffer (10 mM, pH 5.0) 10:90 (v/v), the analytes were eluted using 2 × 650 μl acetonitrile/ammonium acetate buffer (10 mM, pH = 5.0) 95:5 (v/v) and evaporated until dry. Subsequently, samples were reconstituted in 270 μl acetonitrile/ammonium acetate buffer (10 mM, pH = 5.0) 25:75 (v/v) and stored at -80°C until further LC–HRMS analysis.
(§6) After media collection, cell monolayers were washed five times with 2.0 ml DPBS, detached using 400 μl TrypLE® solution (37°C, 5 min), mixed with 600 μl DPBS and transferred into sample vials. Aliquots of these suspensions (100 μl each) were diluted and counted using the Casy® TT Cell Counter to determine the exact number of cells per sample well. The remaining cell suspensions (900 μl each) were gently centrifuged (1000 rpm, 8 min), and the supernatants were discarded. The cell pellets were subsequently resuspended in 100 μl aqueous ammonium acetate buffer (10 mM, pH = 5.0) and lysed by five freeze-thaw-cycles in liquid nitrogen (3 min each), followed by thawing at ambient temperature. Ammonium acetate buffer (1000 μl) was added, and the suspensions were centrifuged (14000 rpm, 5 min). Subsequently, the supernatants were concentrated using the same SPE protocol as described above. All processed samples were then stored at -80°C until further LC–HRMS analysis. For each condition, three biologically independent experiments were performed; the reported values represent the overall means ± SD of all values.
(§7) LC was performed with an UltiMate 3000 RSLC-series system coupled to a maXis HD ESI-Qq-TOF mass spectrometer (Bruker Corporation, Bremen, Germany). A Phenomenex Luna® 3 μm C18(2) 100 Å LC column (250 mm × 4.6 mm I.D.; Phenomenex, Inc., Torrance, CA, United States), preceded by a Hypersil® BDS-C18 guard column (5 μm, 10 mm × 4.6 mm I.D.; Thermo Fisher Scientific, Inc.) was used for the separation of the analytes at a flow rate of 1.0 ml/min and a temperature of 43°C. […] The ESI ion source settings were as follows: capillary voltage: -4.5 kV; dry gas flow rate: 8.0 l/min N2; nebulizer: 1.0 bar N2; and dry temperature: 200°C. The ion transfer parameters were set to 400 Vpp funnel RF and 300 Vpp multipole RF, the quadrupole ion energy was 8.0 eV, and the collision cell parameters were as follows: collision RF, 1100 Vpp; collision energy, 10.0 eV; transfer time, 38 μs; and pre-pulse storage, 18 μs. In the range of m/z 150–500, full-scan mass spectra were recorded.
as §2

MDA-MB-231 cells [6] = details: for decrease of native hormone precursor: MDA-MB-231, 100 nM, 48 h
Procedure: as §5, §6, §7, §2

MDA-MB-231 cells [7] = assay: Cell proliferation, Casy cell counting, MDA-MB-231; format: cell-based, human; details: 0–100 nM, 48 h, hormone-deprived
Procedure: as §3, §4

Compound: O=C(O)C1OC(Oc2ccc(C=Cc3cc(O)cc(O)c3)cc2)C(O)C(O)C1O [RES-4G, trans-resveratrol-4′-O-(β-D-glucuronide)]
- formation of RES metabolite (MDA-MB-231 cells [1]; RES 0–100 μM, 48 h): below the detection limit
- formation of RES metabolite (MCF-7 cells [2]; RES 0–100 μM, 48 h): below the detection limit

Compound: O=S(=O)(O)Oc1cc(O)cc(/C=C/c2ccc(O)cc2)c1 [RES-3S, trans-resveratrol-3-O-sulfate]
- maximum metabolite formation rate (MDA-MB-231 cells [1]; 25 μM RES, 48 h): 2.28 ± 0.33 pmol/10^6 cells/h
- Vmax (MDA-MB-231 cells [1]; MDA-MB-231, Michaelis–Menten model): 3.25 ± 0.44 pmol/10^6 cells/h
- Vmax (MDA-MB-231 cells [1]; MDA-MB-231, substrate inhibition model): 4.31 ± 0.97 pmol/10^6 cells/h
- levels of metabolite relative to RES [3]: approximately 10 fold
- fold increase of metabolite formation in MCF-7 compared with MDA-MB-231 (MCF-7 cells [2]): 150 fold
- mean maximum formation rate (MCF-7 cells [2]; MCF-7, 48 h): 340.1 ± 49.4 pmol/10^6 cells/h
- Vmax (MCF-7 cells [2]; MCF-7, Michaelis–Menten model): 468.4 ± 9.9 pmol/10^6 cells/h
- Vmax (MCF-7 cells [2]; MCF-7, substrate inhibition model): 501.4 ± 17.1 pmol/10^6 cells/h
- reduction in metabolite formation (MCF-7 cells [2]; RES up to 100 μM, substrate inhibition): 43.2%

Compound: C[C@]12CC[C@H](O)CC1=CC[C@@H]1[C@@H]2CC[C@]2(C)C(=O)CC[C@@H]12 [DHEA, dehydroepiandrosterone]
- cell number (MCF-7 cells [4]): 2.69 ± 0.24 × 10^6 cells
- decrease of native hormone precursor (MCF-7 cells [5]): 54.9%
- remaining precursor concentration in the medium (MCF-7 cells [5]; MCF-7, from 100.0 nM, after 48 h): 45.1 ± 1.8 nM
- decrease of native hormone precursor (MDA-MB-231 cells [6]): 26.8%
- remaining precursor concentration in the medium (MDA-MB-231 cells [6]; MDA-MB-231, from 100 nM, after 48 h): 73.2 ± 2.5 nM
- effect of hormone precursor on cell growth (MDA-MB-231 cells [7]): did not further increase cell growth

Compound: C[C@]12CC[C@@H]3c4ccc(O)cc4CC[C@H]3[C@@H]1CCC2=O [E1, estrone]
- cell number (MCF-7 cells [4]): 3.85 ± 0.36 × 10^6 cells
- stimulation of proliferation (MCF-7 cells [4]; 100 nM): 59.8%
- decrease of native hormone precursor (MCF-7 cells [5]): 12.9%
- decrease of native hormone precursor (MDA-MB-231 cells [6]): 12.3%
- effect of hormone precursor on cell growth (MDA-MB-231 cells [7]): did not further increase cell growth
